Here are results for 1 molecule from US6559180B2, “Nitroglycerin-menthol potentiation for treatment of angina” (priority 2001, dated 2003).

Series [1] can be described thus: Second study: exercise stress tests in patients with reproducible exertional angina. The class given is in vivo. An excerpt: The second study pertained to five patients that experienced reproducible exertional angina. The study comprised administering exercise stress tests for each patient on three consecutive days. […]
For each patient, the stress test was stopped with the onset of angina. The objective evidence of ischemia was indicated by the degree of S-T segment depression and presence of segmental wall abnormalities documented by echocardiographic study performed immediately after the exercise stress test.
All tests monitored angina with exercise, exercise tolerance, and the degree of S-T segment depression on the ECG, when: 1) no medication was administered (Table 1); […]); and, 3) a solution containing isovolumic amounts of NTG and Menthol […]

The nature of series [2]: First study: sublingual pump spray in angina patients intolerant to standard 400 mcg NTG spray (intolerance and anginal pain relief). The class given is in vivo. As to conditions: single 200 mcg NTG spray dosage sublingually, Nitrolingual solution diluted fifty percent with placebo solution; 21 patients. The protocol: The first study identifies 21 patients experiencing intolerance to a standard “Nitrolingual”® NTG 400 mcg spray dosage delivered sublingually.
The “Nitrolingual”® solution described above was diluted fifty percent with a pharmacologically neutral solution placebo obtained from the same manufacturer, forming a combination solution. […] Each of the patients was then provided with a pump spray containing the combination solution which would limit each single spray dosage to 200 mcg NTG.
Next, isovolumic amounts of “Nitrolingual”® Pumpspray solution and 1% Menthol solution were mixed and the combination solution was provided to patients as a pump spray.

SMILES strings stand for the structures. Where “and” joins values, the source holds several entries; their conditions need not be identical. Equal entries are not always repeated.

With `O=[N+]([O-])OCC(CO[N+](=O)[O-])O[N+](=O)[O-]` [NTG, Nitroglycerin], in series [1] (400 mg NTG administered prior to exercise, one line per patient (1-5)), the “Heart Rate at Peak” value is 120 and 128 and 140 and 112 and 130. Moreover, the “Duration of Exercise” value in series [1] (400 mg NTG administered prior to exercise, test stopped at onset of angina, one line per patient (1-5)) is 5 min and 6 min and 6.5 min and 4.5 min and 7.5 min. Further, the side effects observed entry in series [1] (400 mcg NTG by itself or 200 mcg NTG in combination with Menthol, before exercise) is reported as “No side effects were observed”. For the same molecule, in series [2], the “patients that did not experience intolerance” value worked out at 90% and the “patients that received satisfactory relief from anginal pain within two minutes” value worked out at 19%.
